# In patent US9771370B2, “Compounds for the inhibition of indoleamine-2,3-dioxygenase” (Merck Patent GmbH, priority 2014, dated 2017):
# Target: Recombinant human IDO (Homo sapiens, UniProt P14902)
# Assay: Bridge-IT tryptophan fluorescence assay of human IDO-1 inhibition
# Type: biochemical
# Settings: recombinant human IDO 7.5 nM, L-tryptophan
# Method in brief: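 Two protocol variants: 100 μM L-Trp for 90 min at 37 °C, or 30 min enzyme–compound pre-incubation at 25 °C, then 50 μM L-Trp for 60 min at 25 °C. Reaction stopped in Bridge-IT solution A for 30 min at 30 °C.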
# Chain of Recombinant human IDO (P14902 whole entry): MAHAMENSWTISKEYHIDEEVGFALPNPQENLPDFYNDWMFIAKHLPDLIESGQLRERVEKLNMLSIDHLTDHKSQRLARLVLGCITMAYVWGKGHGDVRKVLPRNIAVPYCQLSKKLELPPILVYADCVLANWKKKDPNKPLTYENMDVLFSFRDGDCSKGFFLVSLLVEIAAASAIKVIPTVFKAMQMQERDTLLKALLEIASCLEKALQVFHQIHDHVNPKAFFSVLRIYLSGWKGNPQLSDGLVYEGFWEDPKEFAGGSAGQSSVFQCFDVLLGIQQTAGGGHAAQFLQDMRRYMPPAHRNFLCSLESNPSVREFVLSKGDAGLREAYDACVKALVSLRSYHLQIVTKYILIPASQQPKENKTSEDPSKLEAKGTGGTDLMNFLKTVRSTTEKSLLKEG
row,IC50 [nM],Structure (SMILES)
1,100 to 1000,"FC1(CCC2c3ncccc3-c3cncn32)CCC2(CC1)CC2 (single isomer, unassigned) [Compound 30a, 7-(2-{6-fluorospiro[2.5]octan-6-yl}ethyl)-4,6,9-triazatricyclo[6.4.0.0^[2,6]]dodeca-1(8),2,4,9,11-pentaene]"
2,> 1000,"OC1(C2CCC(F)(CCC3c4ccccc4-c4cncn43)CC2)CC1 (single isomer, unassigned) [Compound 60c, 1-[4-fluoro-4-[2-[5H-imidazo[4,3-a]isoindol-5-yl]ethyl]cyclohexyl]cyclopropan-1-ol]"
3,< 100,"OC(CC1c2c(Cl)cccc2-c2cncn21)C1(F)CCCCC1 (single isomer, unassigned) [Compound 83d, 2-[6-chloro-5H-imidazo[4,3-a]isoindol-5-yl]-1-(1-fluorocyclohexyl)ethan-1-ol]"
4,> 1000,"O=C(C1CCC(F)(CCC2c3c(Cl)cccc3-c3cncn32)CC1)N1CCCCC1 (single isomer, unassigned) [Compound 115d]"
5,> 1000,"Fc1cccc2c1C(CCC1(F)CCCCC1)n1cncc1-2 (single isomer, unassigned) [Compound 19a, 6-fluoro-5-(2-(1-fluorocyclohexyl)ethyl)-5H-imidazo[5,1-a]isoindole]"
6,< 100,"NC(=O)C1CCC(F)(CCC2c3ccccc3-c3cncn32)CC1 (single isomer, unassigned) [Compound 79c, 4-fluoro-4-[2-[5H-imidazo[4,3-a]isoindol-5-yl]ethyl]cyclohexane-1-carboxamide]"
7,> 1000,"COc1ccc(F)c2c1-c1cncn1C2CCC1(F)CCCCC1 (single isomer, unassigned) [Compound 45a, 6-fluoro-5-(2-(1-fluorocyclohexyl)ethyl)-9-methoxy-5H-imidazo[5,1-a]isoindole]"
8,< 100,"OC(CC1c2cc(F)ncc2-c2cncn21)C1CCCCC1 (single isomer, unassigned) [Compound 24d, 1-cyclohexyl-2-[10-fluoro-4,6,11-triazatricyclo[6.4.0.0^[2,6]]dodeca-1(8),2,4,9,11-pentaen-7-yl]ethan-1-ol]"
9,100 to 1000,"COc1ccc2c(n1)C(CC(O)C1CCCCC1)n1cncc1-2 (single isomer, unassigned) [Compound 39b, 1-Cyclohexyl-2-[10-methoxy-4,6,9-triazatricyclo[6.4.0.0^[2,6]]dodeca-1(8),2,4,9,11-pentaen-7-yl]ethan-1-ol]"
10,> 1000,"COc1ccc2c(n1)C(CCC1(F)CCC3(CC1)CC3)n1cncc1-2 (single isomer, unassigned) [Compound 54b, 7-(2-{6-fluorospiro[2.5]octan-6-yl}ethyl)-10-methoxy-4,6,9-triazatricyclo[6.4.0.0^[2,6]]dodeca-1(8),2,4,9,11-pentaene]"
11,> 1000,"NC(=O)CC1CCC(F)(CCC2c3ccccc3-c3cncn32)CC1 (single isomer, unassigned) [Compound 112c, 2-[4-fluoro-4-[2-[5H-imidazo[4,3-a]isoindol-5-yl]ethyl]cyclohexyl]acetamide]"
12,> 1000,"OC1CCC(F)(CCC2c3c(Cl)cccc3-c3cncn32)CC1 (single isomer, unassigned) [Compound 71c, 4-[2-[6-chloro-5H-imidazo[4,3-a]isoindol-5-yl]ethyl]-4-fluorocyclohexan-1-ol]"
13,< 100,"O=C(C1CCC(F)(CCC2c3c(Cl)cccc3-c3cncn32)CC1)N1CCCCC1 (single isomer, unassigned) [Compound 115a]"
14,< 100,"OCC1CCC(F)(CCC2c3ccccc3-c3cncn32)CC1 (single isomer, unassigned) [Compound 59b, [4-fluoro-4-[2-[5H-imidazo[4,3-a]isoindol-5-yl]ethyl]cyclohexyl]methanol]"
15,> 1000,"Fc1ccnc2c1-c1cncn1C2CCC1(F)CCCCC1 (single isomer, unassigned) [Compound 102b, 12-fluoro-7-[2-(1-fluorocyclohexyl)ethyl]-4,6,9-triazatricyclo[6.4.0.0^[2,6]]dodeca-1(8),2,4,9,11-pentaene]"
16,> 1000,"COc1cc2c(cn1)-c1cncn1C2CCC1(F)CCCCC1 (single isomer, unassigned) [Compound 15a, 7-[2-(1-fluorocyclohexyl)ethyl]-10-methoxy-4,6,11-triazatricyclo[6.4.0.0^[2,6]]dodeca-1(8),2,4,9,11-pentaene]"
17,> 1000,"CC(C)(O)C1CCC(F)(CCC2c3ccccc3-c3cncn32)CC1 (single isomer, unassigned) [Compound 61b, 2-[4-fluoro-4-[2-[5H-imidazo[4,3-a]isoindol-5-yl]ethyl]cyclohexyl]propan-2-ol]"
18,> 1000,"COc1ccc2c(n1)C(CC(N)C1CCC(F)(F)CC1)n1cncc1-2 (single isomer, unassigned) [Compound 120b, 1-(4,4-difluorocyclohexyl)-2-[10-methoxy-4,6,9-triazatricyclo[6.4.0.0^[2,6]]dodeca-1(8),2,4,9,11-pentaen-7-yl]ethan-1-amine]"
19,100 to 1000,"OC(CC1c2ncccc2-c2cncn21)C1(F)CCCCC1 (stereo not drawn) [Compound 109b, 1-(1-fluorocyclohexyl)-2-[4,6,9-triazatricyclo[6.4.0.0^[2,6]]dodeca-1(8),2,4,9,11-pentaen-7-yl]ethan-1-ol]"

# Second part, the compound before the results:
row,Structure (SMILES),IC50 [nM]
1,"OC1CCC(C(F)(F)CC2c3ccccc3-c3cncn32)CC1 (mixture of isomers) [Compound 74a, 4-(1,1-difluoro-2-[5H-imidazo[4,3-a]isoindol-5-yl]ethyl)cyclohexan-1-ol]",< 100
2,"OCC1CCC(F)(CCC2c3c(F)cccc3-c3cncn32)CC1 (single isomer, unassigned) [Compound 84b, [4-fluoro-4-[2-[6-fluoro-5H-imidazo[4,3-a]isoindol-5-yl]ethyl]cyclohexyl]methanol]",> 1000
3,"OC1CCC(C(F)(F)CC2c3ccccc3-c3cncn32)CC1 (mixture of isomers) [Compound 74b, 4-(1,1-difluoro-2-[5H-imidazo[4,3-a]isoindol-5-yl]ethyl)cyclohexan-1-ol]",100 to 1000
4,"CC(C)(O)C1CCC(F)(CCC2c3c(F)cccc3-c3cncn32)CC1 (stereo not drawn) [Compound 86a, 2-[4-fluoro-4-(2-[6-fluoro-5H-imidazo[4,3-a]isoindol-5-yl]ethyl)cyclohexyl]propan-2-ol]",100 to 1000
5,"OC(CC1c2nc(C3CC3)ccc2-c2cncn21)C1CCCCC1 (single isomer, unassigned) [Compound 56c, 1-cyclohexyl-2-[10-cyclopropyl-4,6,9-triazatricyclo[6.4.0.0^[2,6]]dodeca-1(8),2,4,9,11-pentaen-7-yl]ethan-1-ol]",> 1000
6,"Fc1cccc2c1C(CC(F)C1CCCCC1)n1cncc1-2 (single isomer, unassigned) [Compound 98b, 5-[2-cyclohexyl-2-fluoroethyl]-6-fluoro-5H-imidazo[4,3-a]isoindole]",< 100
7,"NC(=O)C1CCC(F)(CCC2c3c(F)cccc3-c3cncn32)CC1 (single isomer, unassigned) [Compound 81a, 4-fluoro-4-[2-[6-fluoro-5H-imidazo[4,3-a]isoindol-5-yl]ethyl]cyclohexane-1-carboxamide]",100 to 1000
8,"OC(CC1c2ncccc2-c2cncn21)C1CCC(F)(F)CC1 (single isomer, unassigned) [Compound 22c, 1-(4,4-difluorocyclohexyl)-2-[4,6,9-triazatricyclo[6.4.0.0^[2,6]]dodeca-1(8),2,4,9,11-pentaen-7-yl]ethan-1-ol]",> 1000
9,"OC(CC1c2nc(C3CC3)ccc2-c2cncn21)C1CCCCC1 (stereo not drawn) [Compound 56a, 1-cyclohexyl-2-[10-cyclopropyl-4,6,9-triazatricyclo[6.4.0.0^[2,6]]dodeca-1(8),2,4,9,11-pentaen-7-yl]ethan-1-ol]",< 100
10,"NC(=O)CC1CCC(F)(CCC2c3ccccc3-c3cncn32)CC1 (single isomer, unassigned) [Compound 112a, 2-[4-fluoro-4-[2-[5H-imidazo[4,3-a]isoindol-5-yl]ethyl]cyclohexyl]acetamide]",> 1000
11,"OC(CC1c2ncccc2-c2cncn21)C1CCC(C2(O)CC2)CC1 (single isomer, unassigned) [Compound 117c, 1-[4-[1-hydroxy-2-[4,6,9-triazatricyclo[6.4.0.0^[2,6]]dodeca-1(8),2,4,9,11-pentaen-7-yl]ethyl]cyclohexyl]cyclopropan-1-ol]",> 1000
12,"FC(CC1c2ncccc2-c2cncn21)C1CCCCC1 (single isomer, unassigned) [Compound 97b, 7-[2-cyclohexyl-2-fluoroethyl]-4,6,9-triazatricyclo[6.4.0.0^[2,6]]dodeca-1(8),2,4,9,11-pentaene]",100 to 1000
13,"OC1CCC(C(O)CC2c3c(ccnc3F)-c3cncn32)CC1 (mixture of isomers) [Compound 4a, 4-(2-[9-fluoro-4,6,10-triazatricyclo[6.4.0.0^[2,6]]dodeca-1(8),2,4,9,11-pentaen-7-yl]-1-hydroxyethyl) cyclohexan-1-ol]",> 1000
14,"COc1ccc2c(n1)C(CC(O)C1CCC3(CC1)CC3)n1cncc1-2 (stereo not drawn) [Compound 53a, 2-[10-methoxy-4,6,9-triazatricyclo[6.4.0.0^[2,6]]dodeca-1(8),2,4,9,11-pentaen-7-yl]-1-[spiro[2.5]octan-6-yl]ethan-1-ol]",100 to 1000
15,"NC(=O)CC1CCC(F)(CCC2c3c(F)cccc3-c3cncn32)CC1 (single isomer, unassigned) [Compound 116b, 2-[4-Fluoro-4-[2-[6-fluoro-5H-imidazo[4,3-a]isoindol-5-yl]ethyl]cyclohexyl]acetamide]",< 100
16,"OC(CC1c2ncccc2-c2cncn21)C1CCC2(CC1)CC2 (single isomer, unassigned) [Compound 29d, 1-[spiro[2.5]octan-6-yl]-2-[4,6,9-triazatricyclo[6.4.0.0^[2,6]]dodeca-1(8),2,4,9,11-pentaen-7-yl]ethan-1-ol]",> 1000
17,"CC1(C)CCC(CCC2c3ncccc3-c3cncn32)CC1 (stereo not drawn) [Compound 51, 7-[2-(4,4-dimethylcyclohexyl)ethyl]-4,6,9-triazatricyclo[6.4.0.0^[2,6]]dodeca-1(8),2,4,9,11-pentaene]",> 1000
